Activity calls are given as the source filed them.
How the values were obtained:
[1] = cytotoxicity in HMLE control line with eGFP shRNA, dose response, counter-screen for HMLE_sh_ECad selective toxicity project, cell-based, HMLE_sh_eGFP, luminescence (AID 463074); assay type: functional, Homo sapiens;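 note: HMLE human mammary epithelial cells expressing control shRNA against eGFP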
[2] = Luminescence Cell-Based Dose Retest to Confirm Inhibitors of Cancer Stem Cells. [Related pubchem assays (depositor defined):AID2717, AID2721]; assay type: functional; conditions: Homo sapiens
[3] = target: T1, Hexokinase-1 (Homo sapiens, UniProt P19367); assay: HK1 enzyme inhibition by HKDC1 hits, SAR follow-up, selectivity assay for HKDC1 inhibitor project, biochemical, set 2, resazurin fluorescence coupled readout (AID 588356); assay type: functional
T1 sequence (P19367 whole entry): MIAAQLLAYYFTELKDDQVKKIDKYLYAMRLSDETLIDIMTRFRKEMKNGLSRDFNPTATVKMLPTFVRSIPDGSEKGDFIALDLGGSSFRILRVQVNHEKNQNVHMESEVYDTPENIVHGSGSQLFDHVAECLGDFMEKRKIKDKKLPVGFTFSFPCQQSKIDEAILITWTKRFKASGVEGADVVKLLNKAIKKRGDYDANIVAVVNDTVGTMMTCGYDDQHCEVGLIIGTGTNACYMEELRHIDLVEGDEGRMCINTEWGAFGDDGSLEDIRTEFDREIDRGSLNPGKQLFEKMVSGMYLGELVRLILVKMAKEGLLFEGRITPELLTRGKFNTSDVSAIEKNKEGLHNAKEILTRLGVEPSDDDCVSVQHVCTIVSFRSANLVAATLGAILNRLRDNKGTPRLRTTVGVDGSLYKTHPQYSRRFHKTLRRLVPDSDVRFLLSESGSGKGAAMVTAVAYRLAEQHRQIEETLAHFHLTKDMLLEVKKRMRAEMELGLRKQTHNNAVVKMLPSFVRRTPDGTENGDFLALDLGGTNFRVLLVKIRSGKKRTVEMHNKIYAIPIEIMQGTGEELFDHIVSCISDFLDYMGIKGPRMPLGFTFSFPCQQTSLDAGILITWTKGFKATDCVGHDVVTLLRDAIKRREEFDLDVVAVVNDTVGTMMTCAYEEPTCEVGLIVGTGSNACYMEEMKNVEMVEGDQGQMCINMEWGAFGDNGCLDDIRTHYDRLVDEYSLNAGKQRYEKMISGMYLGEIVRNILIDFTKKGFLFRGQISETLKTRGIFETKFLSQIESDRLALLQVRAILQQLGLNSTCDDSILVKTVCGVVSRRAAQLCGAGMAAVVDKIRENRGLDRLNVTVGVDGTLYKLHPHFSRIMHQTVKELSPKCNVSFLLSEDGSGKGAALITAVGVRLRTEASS

[4] = target: T2, Hexokinase HKDC1 (Homo sapiens, UniProt Q2TB90); assay: HKDC1 hexokinase inhibitors, SAR follow-up, biochemical, set 2 (AID 588355); assay type: functional
T2 sequence (Q2TB90 whole entry): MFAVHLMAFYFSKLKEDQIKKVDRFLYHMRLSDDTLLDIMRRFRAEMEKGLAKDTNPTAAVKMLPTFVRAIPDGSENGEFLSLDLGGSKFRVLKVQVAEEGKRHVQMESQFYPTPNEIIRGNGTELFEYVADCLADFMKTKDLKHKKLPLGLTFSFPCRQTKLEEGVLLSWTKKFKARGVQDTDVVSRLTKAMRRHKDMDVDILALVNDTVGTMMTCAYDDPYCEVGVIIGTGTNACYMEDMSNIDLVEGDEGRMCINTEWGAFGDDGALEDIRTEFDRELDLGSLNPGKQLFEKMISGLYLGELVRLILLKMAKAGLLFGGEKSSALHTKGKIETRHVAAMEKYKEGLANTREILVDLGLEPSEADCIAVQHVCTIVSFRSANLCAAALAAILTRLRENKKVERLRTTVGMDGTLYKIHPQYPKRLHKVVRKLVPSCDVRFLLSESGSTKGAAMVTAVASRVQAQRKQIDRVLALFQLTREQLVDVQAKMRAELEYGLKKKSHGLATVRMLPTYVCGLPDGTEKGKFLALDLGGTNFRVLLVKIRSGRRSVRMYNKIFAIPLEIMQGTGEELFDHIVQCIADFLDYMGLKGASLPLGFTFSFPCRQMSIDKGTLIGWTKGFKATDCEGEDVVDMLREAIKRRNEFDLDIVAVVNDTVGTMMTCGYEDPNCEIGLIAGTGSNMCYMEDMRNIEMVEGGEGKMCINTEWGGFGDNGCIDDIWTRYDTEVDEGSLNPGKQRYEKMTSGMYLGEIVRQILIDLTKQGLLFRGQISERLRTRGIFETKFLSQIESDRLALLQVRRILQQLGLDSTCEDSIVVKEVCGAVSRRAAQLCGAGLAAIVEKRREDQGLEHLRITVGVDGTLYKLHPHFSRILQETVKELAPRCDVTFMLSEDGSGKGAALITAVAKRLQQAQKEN

[5] = cytotoxicity in COV362 ovarian cancer cells, dose response, cytotoxicity control for PAX8 inhibitor project, cell-based, plate reader, dry powder, SA12 (AID 743144); assay type: functional
[6] = cytotoxicity in HPDE-C7 cells, cell-based, fluorescence, HTS (AID 430); assay type: functional; conditions: Homo sapiens
[7] = cytotoxicity in KRAS-transformed pancreatic duct cells, primary screen, cell-based, fluorescence, HTS (AID 431); assay type: functional; conditions: Homo sapiens;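 note: cell line used: HPDE-C7K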
[8] = target: T3, Replicative DNA helicase DnaB (Mycobacterium tuberculosis, UniProt P9WMR3); assay: DnaB intein splicing inhibitors, dose response, biochemical, cell-free fluorescence (AID 449749); assay type: functional
T3 sequence (P9WMR3 whole entry): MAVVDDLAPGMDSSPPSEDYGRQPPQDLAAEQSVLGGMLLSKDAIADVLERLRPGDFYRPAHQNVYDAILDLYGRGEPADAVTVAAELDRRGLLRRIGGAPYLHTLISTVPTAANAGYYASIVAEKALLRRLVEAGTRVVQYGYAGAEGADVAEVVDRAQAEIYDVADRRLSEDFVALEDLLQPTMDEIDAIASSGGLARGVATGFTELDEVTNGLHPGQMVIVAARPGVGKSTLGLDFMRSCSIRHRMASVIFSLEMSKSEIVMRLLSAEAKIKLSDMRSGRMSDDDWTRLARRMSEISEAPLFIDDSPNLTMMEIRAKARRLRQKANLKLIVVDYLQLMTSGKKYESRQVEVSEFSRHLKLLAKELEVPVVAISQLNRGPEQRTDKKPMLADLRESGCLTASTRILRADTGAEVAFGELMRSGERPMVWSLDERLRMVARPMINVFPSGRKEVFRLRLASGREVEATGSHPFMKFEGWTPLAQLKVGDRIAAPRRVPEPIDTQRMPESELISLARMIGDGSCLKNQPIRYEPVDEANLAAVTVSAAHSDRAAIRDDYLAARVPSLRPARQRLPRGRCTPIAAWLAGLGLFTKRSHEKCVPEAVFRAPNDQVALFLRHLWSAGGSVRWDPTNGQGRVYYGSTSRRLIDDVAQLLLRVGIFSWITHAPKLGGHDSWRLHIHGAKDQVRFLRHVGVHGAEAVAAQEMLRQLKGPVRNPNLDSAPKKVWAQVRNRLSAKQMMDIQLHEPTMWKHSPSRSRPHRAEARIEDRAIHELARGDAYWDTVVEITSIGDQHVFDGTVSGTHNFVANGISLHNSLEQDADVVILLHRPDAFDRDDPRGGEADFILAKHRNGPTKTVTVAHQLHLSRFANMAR

[9] = cytotoxicity dependent on PAX8, dose response, cell-based, plate reader, dry powder (AID 743049); assay type: functional
[10] = cytotoxicity in COV434 cells, dose response, cytotoxicity control for PAX8 inhibitor project, cell-based, plate reader, dry powder, SA7 (AID 743145); assay type: functional
[11] = target: T4, Microphthalmia-associated transcription factor (Homo sapiens, UniProt O75030); assay: TRPM1 promoter luciferase signal decrease, dose response, MITF inhibitor project, cell-based, SK-MEL-5, cherry-picked, set 3 (AID 493073); assay type: functional
T4 sequence (O75030 whole entry): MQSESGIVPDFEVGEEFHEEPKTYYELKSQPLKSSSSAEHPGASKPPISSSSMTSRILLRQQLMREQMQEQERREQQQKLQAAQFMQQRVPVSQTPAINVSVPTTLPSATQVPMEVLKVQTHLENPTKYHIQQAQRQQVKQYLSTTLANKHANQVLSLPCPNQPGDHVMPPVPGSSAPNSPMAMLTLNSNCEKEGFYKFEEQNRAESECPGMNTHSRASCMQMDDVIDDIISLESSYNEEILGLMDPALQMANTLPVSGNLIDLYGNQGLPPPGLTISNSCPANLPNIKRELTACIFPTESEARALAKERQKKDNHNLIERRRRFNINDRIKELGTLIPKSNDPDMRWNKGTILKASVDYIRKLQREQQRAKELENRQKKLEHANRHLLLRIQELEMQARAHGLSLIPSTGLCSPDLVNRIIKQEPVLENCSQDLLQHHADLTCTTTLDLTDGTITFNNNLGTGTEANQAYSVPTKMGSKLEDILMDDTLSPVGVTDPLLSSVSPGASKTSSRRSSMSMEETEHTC

[12] = target: T5, Protein RecA (Mycobacterium tuberculosis, UniProt P9WHJ3); assay: Fluorescence Cell-Free Homogeneous Dose Retest to Identify Inhibitors of RecA-Intein Splicing Activity. [Related pubchem assays (depositor defined):AID2097, AID2223, AID489010, AID492950]; assay type: functional
T5 sequence (P9WHJ3 whole entry): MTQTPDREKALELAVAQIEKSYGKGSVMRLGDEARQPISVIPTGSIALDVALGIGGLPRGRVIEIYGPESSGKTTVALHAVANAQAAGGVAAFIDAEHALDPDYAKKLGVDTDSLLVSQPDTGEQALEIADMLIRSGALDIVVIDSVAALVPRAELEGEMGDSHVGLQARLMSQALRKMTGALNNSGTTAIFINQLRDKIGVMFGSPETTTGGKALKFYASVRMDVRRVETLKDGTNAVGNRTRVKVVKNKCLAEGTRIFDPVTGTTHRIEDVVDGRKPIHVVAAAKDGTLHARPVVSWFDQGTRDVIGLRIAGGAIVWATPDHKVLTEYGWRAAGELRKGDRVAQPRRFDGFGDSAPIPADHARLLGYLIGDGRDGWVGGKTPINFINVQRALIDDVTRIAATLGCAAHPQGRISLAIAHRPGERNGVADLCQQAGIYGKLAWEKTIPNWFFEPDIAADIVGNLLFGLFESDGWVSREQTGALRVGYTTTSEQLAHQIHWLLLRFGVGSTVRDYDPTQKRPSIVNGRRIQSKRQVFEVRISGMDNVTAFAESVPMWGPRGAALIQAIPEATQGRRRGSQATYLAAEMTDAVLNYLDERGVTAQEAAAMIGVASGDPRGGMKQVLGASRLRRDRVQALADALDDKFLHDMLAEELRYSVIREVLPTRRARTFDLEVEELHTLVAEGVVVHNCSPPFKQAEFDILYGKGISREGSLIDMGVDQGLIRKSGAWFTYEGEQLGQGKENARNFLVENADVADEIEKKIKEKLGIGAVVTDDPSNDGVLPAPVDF

[13] = cytotoxicity in OV-90 ovarian cancer cells, dose response, PAX8 inhibitor project, cell-based, plate reader, dry powder, SA8 (AID 743149); assay type: functional
[14] = IGROV1 ovarian cancer cell cytotoxicity, dose response, PAX8 inhibitor project, plate reader, dry powder samples (AID 743043); assay type: functional, cell-based; conditions: IGROV-1
[15] = A2780 ovarian cancer cell cytotoxicity, dose response, cytotoxicity control, plate reader, dry powder samples (AID 743046); assay type: functional, cell-based
[16] = IOSE-T80 ovarian epithelial cell cytotoxicity, dose response, cytotoxicity control for PAX8 inhibitor project, plate reader, dry powder samples (AID 743045); assay type: functional, cell-based
[17] = PAX5 activity inhibitors, dose response, selectivity assay for PAX8 inhibitor project, cell-based, plate reader, dry powder samples (AID 743047); assay type: functional;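 note: HEK293 cells carrying a Pax5 driven CD19 promoter luciferase reporter; potency of inhibitors that lower reporter luminescence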
[18] = Luminescence Cell-Based Dose Response HTS to Identify Activators of Luciferase Translation or Activity in H4 […] Cells. [Related pubchem assays: 1829 (Project Summary), 1814 (Primary HTS)]; assay type: functional
[19] = target: Paired box protein Pax-8 (Homo sapiens, UniProt Q06710); assay: inhibitors of PAX8-driven TPO luciferase reporter, dose response, RMG-I cells, cherry-pick (AID 687027); assay type: functional, cell-based;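 note: luciferase reporter driven by Pax8 target thyroperoxidase promoter measured by SteadyGlo luminescence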
[20] = tested on: A-375; assay: MITF: Counter assay: A375 proliferation Measured in Cell-Based System Using Plate Reader - 2084-03_Inhibitor_Dose_DryPowder_Activity. [Related pubchem assays (depositor defined):AID488944]; assay type: functional; conditions: Homo sapiens
[21] = PAX2 cell-based inhibition, dose response, selectivity assay for PAX8 inhibitor project, plate reader, dry powder samples (AID 743048); assay type: functional;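 note: HEK293 cells carrying a WT1 promoter luciferase reporter driven by expressed Pax2; potency is for inhibition of Pax2 driven reporter signal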
[22] = tested on: A-375; assay: A375 melanoma cell viability reduction, dose response, counter-screen for MITF modulator project, cherry-pick samples, set 2 (AID 540335); assay type: functional, cell-based; conditions: Homo sapiens
[23] = cytotoxicity in OVCAR4 cells, dose response, cytotoxicity control for PAX8 inhibitor project, cell-based, plate reader, dry powder, SA11 (AID 743150); assay type: functional; conditions: OVCAR-4
[24] = tested on: H4; assay: Luminescence Cell-Based Dose Response HTS to Identify Activators of 5'UTR Stem-Loop Driven Prion Protein mRNA Translation in H4 Neuroglioblastoma Cells. [Related pubchem assays: 1829 (Project Summary), 1814 (Primary HTS)]; assay type: functional; conditions: Homo sapiens
[25] = tested on: HeLa; assay: HeLa cell cytotoxicity, dose response, cytotoxicity control for MITF activator project, CellTiter-Glo luminescence, cherry-pick samples (AID 540259); assay type: functional, cell-based; conditions: Homo sapiens

Chain of Paired box protein Pax-8 (Q06710 whole entry): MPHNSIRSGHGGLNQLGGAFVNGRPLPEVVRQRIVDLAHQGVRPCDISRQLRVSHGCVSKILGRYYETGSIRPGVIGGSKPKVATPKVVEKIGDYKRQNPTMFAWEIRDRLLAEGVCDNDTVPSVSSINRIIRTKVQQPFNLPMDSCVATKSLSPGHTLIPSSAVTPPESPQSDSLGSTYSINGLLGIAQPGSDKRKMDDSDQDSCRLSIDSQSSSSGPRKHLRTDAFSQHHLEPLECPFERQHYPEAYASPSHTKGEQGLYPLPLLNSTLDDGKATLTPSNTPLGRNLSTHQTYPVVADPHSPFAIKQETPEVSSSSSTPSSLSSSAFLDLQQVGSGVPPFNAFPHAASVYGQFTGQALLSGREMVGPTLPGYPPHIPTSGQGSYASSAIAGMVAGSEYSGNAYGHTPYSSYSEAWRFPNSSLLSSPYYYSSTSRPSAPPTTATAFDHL

## O=C(NC(=S)Nc1ccc2oc(=O)ccc2c1)c1ccc(-c2cccc(Cl)c2Cl)o1
[1]
  AC50: 39.2 µM (active)
[2]
  AC50: 2.77 µM (active)

## COc1cc2c(cc1OC)-c1cc(NCc3ccccc3F)nc(=O)n1CC2
[3]
  IC50: > 80 µM (inactive)
[4]
  IC50: > 80 µM (inactive)

## Cn1nnnc1Sc1ncnc2scc(-c3ccc(F)cc3)c12
[5]
  AC50: 48 µM (active)
[6]
  EC50: 5.23 µM (active)
[7]
  EC50: 5.32 µM (active)
[8]
  AC50: 93 µM (active)
[9]
  AC50: 26.6 µM (active)
[10]
  AC50: 37.1 µM (active)
[11]
  AC50: 8.1 µM (active)
[12]
  EC50: 11.2 µM (active)
[13]
  AC50: 44.6 µM (active)
[14]
  AC50: 35.6 µM (active)
[15]
  AC50: 29.8 µM (active)
[16]
  AC50: 68.6 µM (active)
[17]
  AC50: 36.4 µM (active)
[18]
  EC50: 0.116 µM (active)
[19]
  AC50: 4.15 µM (active)
[20]
  AC50: > 35 µM (active)
[21]
  AC50: 28.6 µM (active)
[22]
  AC50: > 35 µM (active)
[23]
  AC50: 39.7 µM (active)
[24]
  EC50: > 120 µM (not active)

## Nc1nc(-c2cc(-c3ccccc3)no2)cs1
[25]
  AC50: 144 µM (active)
